This is an account of results in US20210403455A1 (priority 2018, published 2021).

This test concerns rice blast. It counts as cell-based. Particulars: acetone solution at 500 ppm, 1000 μl dropped on oatmeal medium; 8 mm rice blast disc; 25° C. for five days; fungal filament elongation vs acetone-only treatment.

Turning to `COc1nc(-c2ccccn2)nc(F)c1C(F)(F)F` [Example 3, 6-fluoro-4-methoxy-2-(2-pyridyl)-5-trifluoromethylpyrimidine], the Preventive value was 80.
